Our source for the aqueous solubility values is PMC3772510 (ChemMedChem, 2011).

Structures are written as SMILES. Values after ≈ are worked out from the molar mass of the structure shown.

The nature of this data set: aqueous solubility. It is filed as physicochemical.

Usually aqueous solubility stands for how much of the substance goes into solution per volume. The low end stands for a poorly soluble substance, the high end for a readily soluble substance. Molecule `COc1ccc(C2=N[C@@H](c3ccc(Cl)cc3)[C@@H](c3ccc(Cl)cc3)N2C(=O)N2CCNC(=O)C2)c(OC(C)C)c1` [Nutlin-3a, nutlin-3a] returned an aqueous solubility of 100 µg/mL (≈ 172 µM).
